Experimental data published in ChEMBL document CHEMBL3507680, “University of Dundee, Gates Library screen for HepG2 cell viability”.

Assay: Human HepG2 cell viability assay in 384 well format
Format: toxicity, cell-based
Design: dose 125 nL, time 70.5 hour; concentration not given beside the values
Details: HepG2 cells, read-out: Inhibition

| Compound | cytotoxicity at 70.5 h [%] |
| --- | --- |
| CC(C)CN1CC(C(=O)NCc2cccnc2-n2cccn2)CC1=O (stereo not given) | -8.02 |
| CN(C)C(=O)[C@H]1CC[C@@H]2[C@@H](CCN2C(=O)N(C)C)O1 | 1.41 |
| c1cc(CN2CCCn3cnc(COCC4CC4)c3C2)ccn1 | -2.95 |
| Cc1cc(C)n2ncc(CN3CCC(Cn4cc(CO)nn4)CC3)c2n1 | 0.595 |
| Cc1cccc(Cn2c(=O)[nH]c3csnc3c2=O)c1 | -4.48 |
| CN(C)c1ncnc2c1CCN(c1ccccc1)CC2 | 13.6 |
| O=C(Cc1ccc(F)cc1)NCCc1ccoc1 | -5.69 |
| CC(OCC1CC1)C(=O)N1CCCN(c2nc3ccccc3[nH]2)CC1 (stereo not given) | -3.86 |
| O=C(NCCC1COc2ccccc2O1)c1ccc(-c2cc[nH]n2)nc1 (stereo not given) | -4.68 |
| Cn1cc(CN2CCCC3(CCN3S(C)(=O)=O)C2)cn1 (stereo not given) | 7.75 |
| Cc1ncccc1C(=O)NC1CC(=O)N(CC(F)(F)F)C1 (stereo not given) | -0.154 |
| CN1C(=O)C(c2cccnc2)CC12CCN(C(=O)c1cccn1C)CC2 (stereo not given) | -10.3 |
| CCN(CC)C1COc2c(cc(Br)c(C)c2C)C1=O (stereo not given) | -6.45 |
| Cc1ccc(C(C)NCc2cn(CCC(N)=O)c3ccccc23)cc1C (stereo not given) | -3.87 |
| Cc1csc(C(C)(C)NCC(=O)N(C)Cc2ccc(C)o2)n1 | 4.78 |
| Cc1cc(C(=O)N[C@H]2Cc3ccccc3[C@@H]2N)c(=O)[nH]c1C | 1.3 |
| CCCc1cncnc1N1CCC2(CCC(=O)N(C3CCCC3)C2)CC1 | -12.7 |
| CC(C)(C)N1CC(C(=O)NCc2nc(C3CCCCC3)no2)CC1=O (stereo not given) | -4.38 |
| Cn1ccnc1CN1CCC2(CC1)COCCN(S(C)(=O)=O)C2 | -7.67 |
| Cc1ccc(CCC(=O)N2CCOCC2c2ncon2)c(C)c1 (stereo not given) | 13.3 |
| CC(=O)Nc1nc(C(=O)N2CCCC(n3nc(C)cc3C)C2)cs1 (stereo not given) | 31.5 |
| Cc1ccc(CN(C)Cc2nc3ccc(F)cc3[nH]2)cn1 | -0.998 |
| CN(C)CCNc1ccc(-c2nc(-c3ccccc3F)no2)cn1 | 0.837 |

| Compound | cytotoxicity at 70.5 h [%] |
| --- | --- |
| Cc1ccc(CN2CCCN(Cc3cscn3)CC2)cc1 | 3.58 |
| CN(CCc1cnn(C)c1)C(=O)Cn1c(=O)[nH]c2ccccc21 | -6.43 |
| CC(C)N1CCO[C@@H]2CN(C(=O)NCc3ccccc3)CC[C@@H]2C1 | 28.5 |
| CCc1nc(C2CCCN2C(=O)c2nc(C)n3ccccc23)no1 (stereo not given) | -7.79 |
| COc1cccc(C2C3=C(COC3=O)Nc3[nH]nc(C)c32)c1O (stereo not given) | -3.51 |
| CCCc1nnc(C(=O)N(C)Cc2cnc3ccccn23)o1 | 33.7 |
| CCN1CC[C@@]2(C(=O)N3CCOCC3)CCN(C(=O)CC(C)C)CC[C@@H]12 | -2.66 |
| CC(C)C(C(N)=O)c1cccc(Cl)c1 (stereo not given) | -3.86 |
| COc1ccccc1CN1CCN(CCN2CCOC2=O)CC1 | 8.76 |
| O=C(O)c1cc(Br)cnc1OCC1CC1 | 2.88 |
| Cc1occc1C(=O)N1C[C@@H](C(=O)N2CCCCO2)C[C@H]2OCC[C@H]21 | -7.27 |
| O[C@@H]1CN(Cc2cnccn2)C[C@H]1Oc1ccccc1 | -6.26 |
| CN(Cc1cccs1)C(=O)CS(=O)(=O)Cc1ccc(Cl)c(Cl)c1 | 26.3 |
| CC(C)NC(=O)N1CCCn2cnc(CN3CCCC3=O)c2C1 | 27.9 |
| CC(=O)c1ccc(C(=O)N(C)Cc2nc(-c3ccccn3)no2)s1 | 8.57 |
| COc1cccc(CNC(=O)N2CCN(Cc3cc(C)on3)CC2)c1 | -20.5 |
| COC(=O)CCNC(=O)c1c[nH]cc1-c1ccccc1OC | -3.42 |
| COCCCNC(=O)CN(C)C(=O)c1ccccc1O | -3.02 |
| COC(=O)c1cccn1C1CCN(Cc2cccc(C(N)=O)c2)CC1 | -0.0643 |
| Cc1cc(NC(=O)CCN2CCCCC2Cn2cncn2)no1 (stereo not given) | -15.1 |
| CS(=O)(=O)CCNCc1ccc(OCc2ccncc2)cc1 | 19.2 |
| Cc1cccc(N2CCN(C(=O)c3c(C)nn(C)c3C)CC2)c1C | -0.882 |
